Laboratory results: patent US10035780B2, “Quinazoline scaffold based compounds, pharmaceutical compositions and methods of use thereof” (TECHNION RESEARCH & DEVELOPMENT FOUNDATION LTD., priority 2014, dated 2018)
“Also recorded” adds a separate entry of the source.

Tests used:
SH SY 6Y cells = experiment: Protection of SH SY 6Y neuronal cells against lethal effects of glutamate; type: cell-based, human
Experimental: (§1) Cell cultures of various human glial type cell lines (T98G, U87MG, A172, U118MG), as well as human neuronal type cell lines SH-SY 5Y and Be(2)-C were used to test the new compounds. In addition, the rat glioma cell line C6 was used. PC12 cells originating from rats were used as another cell line displaying neuronal characteristics. The applicants also have produced, by genetic manipulation, a modified rat C6 glial cell strain and a modified human U118MG glial type cell strain, both under-expressing the TSPO, which allows to study TSPO specific effects, including of the compounds of the invention, which can be done according to methods described previously (Weisinger et al. Biochemistry. 2004; 43:12315-21; Levin et al. 2005; Zeno et al., 2009).
The protective capabilities of the compounds of the invention and involvement of the TSPO were tested in cell culture, using cell lines of glial and neuronal type, cultured and testing according to standard methods (Kugler et al. 2008; Zeno et al. 2009; Dadon-Nachum et al. Stem Cell Rev. 2011; 7:664-71). […]

TSPO = TSPO (Homo sapiens (Human), UniProt P30536); type: binding; conditions: displacement of [3H]PK 11195 from TSPO
Chain of TSPO (P30536 whole entry): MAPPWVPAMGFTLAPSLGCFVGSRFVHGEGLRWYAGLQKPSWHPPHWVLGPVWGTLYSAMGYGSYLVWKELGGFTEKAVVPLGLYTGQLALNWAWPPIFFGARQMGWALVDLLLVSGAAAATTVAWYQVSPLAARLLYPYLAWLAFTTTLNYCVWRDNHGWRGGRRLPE
Experimental: Briefly, the assay utilizes radioactive standard ligand [^3H] PK 11195 (1-(2-chlorophenyl)-N-methyl-N-(1-methyl-propyl)-3 isoquinolinecarboxamide), and measures the ability of the compounds of the invention to displace standard ligand in binding to TSPO. Total radioactive binding was determined by measuring the radioactivity of the radioactive ligand-receptor complex, obtained in the reaction of radioactive standard with the TSPO. Radioactive standard and the examined compound were added to the TSPO and after some incubation time the radioactivity of the resulting ligand-receptor complexes was measured with the help of a […]. This radioactivity indicates the binding of the radioactive standard to TSPO. […] This can be expressed as the half maximal inhibitory concentration (IC50), which is a measure of the effectiveness of a compound in inhibiting biological or biochemical function, in this case inhibiting binding of standard radioactive ligand binding to the TSPO. A derivative of the IC50 is the Ki, which is the calculated binding affinity of the novel compound to the TSPO.
Binding to TSPO was evaluated using a [^3H]PK 11195 radio-assay, as described above.

U118MG cells = experiment: Protection against cell death induced by glutamate in U118MG cell culture; type: cell-based, human; conditions: for Protection against glutamate-induced cell death: cell culture, grade in words; for lethal effects of compound at high concentration: 100 μM compound alone; for protection against cell death induced by glutamate: U118MG cells, 35 mM glutamate, compound 1-100 μM
Experimental: as §1
The protective capabilities of the compounds of the invention and involvement of the TSPO were tested in cell culture, using cell lines of glial and neuronal type, cultured and testing according to standard methods (Kugler et al. 2008; Zeno et al. 2009; Dadon-Nachum et al. Stem Cell Rev. 2011; 7:664-71). Furthermore, primary cell cultures are also used (Banker, G. et al. Culturing Nerve Cells, 2nd Edition, The MIT Press (1998). Treatments included: (1) exposure to glutamate (35 mM), Abeta(1-42), NH4Cl, CoCl2, and nitric oxide (NO) donors, in order to mimic particular aspects of neurodegeneration; (2) treatment with the novel compounds and with traditional TSPO ligands as comparative treatment; and (3) TSPO knockdown by genetic manipulation.
Techniques and parameters assayed are summarized here: Total protein levels (Bradford. Anal Biochem. 1976; 72:248-54); TSPO ligand binding assays (Kugler et al. 2008; Levin et al. 2005; Danovich et al. Eur Neuropsychopharmacol. 2008; 18:24-33) cell death, including apoptosis and necrosis and related molecular biological processes (Soustiel et al. Neuropathol Appl Neurobiol. 2008; 34:412-23; Soustiel et al. Exp Neurol. 2008; 214:201-8; Zeno et al. 2009); mitochondrial transmembrane potential collapse (Chelli et al. Biochem Pharmacol. 2004; 68:125-34; Kugler et al. 2008; Zeno et al., 2009; Shargorodsky et al. Apoptosis. 2012; 17:647-65), reactive oxygen species (ROS) generation as a measure of oxidative stress (Veenman et al. 2008; Zeno et al. 2009); TSPO knockdown (Levin et al. 2005; Zeno et al. 2009); expression levels of mitochondrial TSPO and associated proteins (Veenman et al. 2002; Levin et al. 2005; Veenman et al. 2008); gene expression with RT-PCR and microarray analysis (Bode et al. 2012; Veenman et al. 2012). Parameters of inflammation, immune response, migration, and the cell cycle are also tested. All these approaches can also be applied for quality control of the compounds.
The compounds of the invention protect against cell death induced by glutamate in cell culture of U118MG cells of astrocytic origin (FIGS. 1, 2, 3 and 8) or SH SY 6Y cells of neuronal origin (FIG. 4). […] In the control group, 35 mM of glutamate killed ˜60% of the cells.
The experimental setup is explained using FIG. 8B as an example: • 1. Control: Cell death levels are taken as 0% • 2. Glu: Cell death levels induced by glutamate are over 50% • 3. […] Glu+Cpd 5: When Cpd 5 is given as a treatment to counteract cell death induced by glutamate, increasing concentrations of Cpd 5 reduce cell death levels from over 50% to less than 5%.

R6-2 mice [1] = experiment: Lifespan of R6-2 mice, transgenic model for Huntington Disease; type: in vivo, mouse; conditions: for effect on lifespan: daily s.c. injections 5 days a week from week 5, vs DMSO and saline
Excerpt: For the assays described herein systemic injections of kainic in rats were applied and also contusion (Veenman et al. 2002; Soustiel et al. Neuropathol Appl Neurobiol. 2008; Soustiel et al. Exp Neurol. 2008). These models present very well defined cell death in the brain. Cell death in the brain is the major pathological characteristic of progressing neurodegeneration common to brain diseases. As the compounds of the present invention are designed to prevent cell death in the brain as a consequence of disease and progressing brain damage after injury, including behavioral impairments, animal models displaying cell death in the brain are the models of choice for displaying the protective capabilities of the compounds of the invention. For these reasons the R6-2 model for Huntington Disease was chosen to test the effectiveness of Compound 1 and to compare the effectiveness of Compound 1 with those of the compound of U.S. Pat. No. 8,541,428 (Cpd A) and with the classical TSPO ligand PK 11195, as well as other compounds disclosed herein. Compounds 5 and 6 were also tested in the same R6-2 model.
R6-2 is a transgenic mouse model for Huntington Disease. Huntington Disease in humans is a hereditary neurodegenerative disease affecting motor performance and finally leading to death of the patients having the disease. R6-2 mice (˜120 CAG repeats B6CBA-Tg(HDexon1)62 Gpb/3J) mice were used for the experiments described below. For this purpose, mice obtained from the Jackson Laboratory (ME) were bred. In particular: males genotype: Hemizygous for Tg(HDexon1)62 Gpb, and females from the wildtype background strain B6CBAF1/J were bred according to the protocol of Jackson Laboratory. The male heterozygote offspring (R6-2 mice) were used for determining life span and motor activity, with and without drug treatment. Drug treatment consisted of daily (5 continuous days a week) subcutaneous injections of mice with 20 μl of: saline (sham control), vehicle DMSO (vehicle control), classic TSPO ligand PK 11195 (15 mg/kg), prior art Compound A (15 mg/kg), Compound 1 (15 mg/kg), and compound 1 (7.5 mg/kg). Drug treatment started on week 5 after birth. Quantities were used according to previous studies regarding TSPO ligands.
(§2) Apart from the behavioral experiments, mice were observed daily, and the day of death was noted. Behavioral experiments included distance covered in an open field apparatus, and tremor measurements.
R6-2 mice were used as previously described in Example 5. In one experiment, treatment consisted of daily (5 continuous days per week) subcutaneous injections of mice with 20 μl of vehicle DMSO (control, n=10) and Compound 6 (7.5 mg/kg, n=12). In a separate experiment, compound 5 (7.5 mg/kg, n=5) was tested, compared to DMSO control (n=5).

R6-2 mice [2] = experiment: Incidence of tremor in R6-2 mice; type: in vivo, mouse
Excerpt: as §2
To assay incidence of tremor in R6-2 mice of the experiments for this invention, the StartleMonitor of Kinder Scientific (Poway, Calif.), with specific software to assay and present force pressure changes in newtons, was used.

**Q.** What does the source list for `CCN(CC)C(=O)Oc1nc(-c2ccc(Br)cc2)nc2ccccc12` [Compound 4, 2-(4-bromophenyl)quinazolin-4-yl diethylcarbamate]?
**A.** protection against lethal effects of glutamate (SH SY 6Y cells): protects neuronal cells; Ki (TSPO): ~45 nM; Protection against glutamate-induced cell death (U118MG cells): Good

**Q.** With `CCN(C)C(=O)Oc1nc(-c2ccccc2Cl)nc2ccccc12` [Compound 6, 2-(2-chlorophenyl)quinazolin-4-yl ethyl(methyl)carbamate] as the compound, how does the “week until which 50% of the mice were still alive” value (R6-2 mice [1]; 7.5 mg/kg s.c., 50% of DMSO mice died before 10th week) read?
**A.** The value was 12 week.

**Q.** And the effect on lifespan (R6-2 mice [1])?
**A.** The effect on lifespan was “increase the average lifespan; also recorded: extends the life span”.

**Q.** What about the effect on lifespan (R6-2 mice [1]; listed as compound 6) of the same compound?
**A.** Its effect on lifespan is “robust lifespan enhancing”.

**Q.** And the “incidence of tremor activity” value (R6-2 mice [2])?
**A.** Its value is “tremor reducing effects; also recorded: reduced the incidence of tremor activity”.

**Q.** And the Ki (TSPO)?
**A.** The Ki was roughly 60 nM.

**Q.** What about the “lethal effects of compound at high concentration” value (U118MG cells; halogenated vs unhalogenated analog) of the same compound?
**A.** Its value is “reduces lethal effects”.

**Q.** And the “lethal effects of compound at high concentration” value (U118MG cells; halogenated vs unhalogenated analog, listed as Cpd 6)?
**A.** The value was “reduces cell death effects”.

**Q.** And the “protection against cell death induced by glutamate” value (U118MG cells)?
**A.** Its value is “protect better and more consistently; also recorded: improves protection”.

**Q.** What about the “protection against cell death induced by glutamate” value (U118MG cells; listed as compound 6) of the same compound?
**A.** Its value is “superior over compound 1”.

**Q.** And the “Protection against glutamate-induced cell death” value (U118MG cells)?
**A.** The value was “Excellent”.

**Q.** And the “cell death effect of glutamate at high compound concentration” value (U118MG cells; glutamate plus 100 μM compound, halogenated vs unhalogenated analog)?
**A.** The value was “reduces cell death effect of glutamate in cultures even further”.

**Q.** What about the “cells killed by glutamate” value (U118MG cells; glutamate plus 100 μM compound, glutamate alone kills 50-60%) of the same compound?
**A.** Its value is 5%.
